Values joined by “and” are separate entries in the source; they are usually repeats but may differ in a detail not shown here. Equal values may be shown once.
Tested on: DSS-induced colitis
Test: DSS-induced colitis mouse model (experimental ulcerative colitis)
Assay type: in vivo
Parameters: Colon wet weight: unit not given here
Description: In this Example, mouse models to which dextran sulfate sodium salt (DSS) is used will be described as colitis models. When DSS is administered by being mixed in drinking water of the mouse, an experimental ulcerative colitis model similar to human ulcerative colitis in terms of symptoms such as suppression of body weight increase, blood in stools, and anemia and formation of colon erosion and further lacking intestinal lesion was build (Non-Patent Literature 3). A suppression effect of Compound X on colitis in such a model as the representative colitis model was examined. For the evaluation items, recovery from diarrhea and body weight loss by colitis, and the length and weight of the colon were examined as changes in colon properties, which are widely known to occur by DSS-induced colitis.
For treatment, C57BL/6J, male mice were purchased from CHARLES RIVER LABORATORIES JAPAN, INC. in accordance with previous literature (Non-Patent Literature 2) and 5-week old mice with no abnormal general conditions during quarantine and acclimation period were used for the experiment. After acclimation, the animals were divided in such a way as to be 1 mouse per cage. DSS used in the experiment having a molecular weight of from 36,000 to 50,000 Da was purchased from MP Bio Japan. DSS was added to tap water in such a way as to be 3% and suspended for causing colitis. The suspension was prepared once every 3 days and freely provided to each of the mice as water supply. A solution from which DSS was removed was provided as water supply to a non-pathological control group.
After group division, each of the test substances of Table 1 was suspended in a solution of 0.5% sodium carboxymethyl cellulose (hereinafter, CMC, Nacalai Tesque Inc.) in such a way as to be each treatment of Table 1 and orally administered once daily. […] These control groups, Groups 1 and 2, were orally administered, as the test substance, with the 0.5% CMC solution used as the medium.
Drinking water after the group division was typical water for drinking.
The test started with 6 mice in Group No. 1 and 10 mice each in Group Nos. 2 to 6.
Body weights were measured on the DSS administration starting day (day −5), DSS administration last day (day 0), on day 3, day 5, day 8, and day 10 of test substance administration.
The therapeutic effect was evaluated by observing changes in blood in stools caused by enteritis as the body weight recovery alone can be considered that the body weight increase might have been promoted simply by the growth. Mice feces were observed on the DSS administration starting day (day-5), DSS administration last day (day 0), on day 3, day 5, day 8, and day 10 of test substance administration and scored in accordance with the criteria of Table 2.
For evaluating the therapeutic effect of Compound X, the length and weight of the colon were measured. The mice were euthanized under anesthesia on day 10 of test substance administration and dissected to remove the colon. The removed colon was quickly measured for a length in a relaxed state. Subsequently, feces in the intestinal tract were removed and sufficiently washed with phosphate buffered saline (Wako Pure Chemical Industries, Ltd.) and measured for a wet weight.

[1] = DSS + 1 mg/kg/day oral, day 10, mean ± SD
[2] = DSS + 10 mg/kg/day oral, day 10, mean ± SD
[3] = DSS + 100 mg/kg/day oral, day 10, mean ± SD

For `CC1=C(/C=C/C(C)=C/C=C/C(C)=C/C=C/C=C(C)/C=C/C=C(C)/C=C/C2=C(C)C(=O)[C@@H](OC(=O)CNC(=O)NCCCC(=O)O)CC2(C)C)C(C)(C)C[C@H](OC(=O)CNC(=O)NCCCC(=O)O)C1=O.NCCCC[C@H](N)C(=O)O.NCCCC[C@H](N)C(=O)O` [Compound X, 4-(3-{4-[18-(4(S)-[3-(3-Carboxypropyl)ureidoacetoxy]-2,6,6-trimethyl-3-oxocyclohexa-1-enyl)-3,7,12,16-tetramethyloctadeca-1(E),3(E),5(E),7(E),9(E),11(E),13(E),15(E),17(E)-nonaenyl]-3,5,5-trimethyl-2-oxocyclohex-3-enyl-1(S)-oxycarbonylmethyl}ureido)butyric acid dilysine salt], the “Blood feces score versus DSS administration group” value (100 mg/kg/day oral, day 5 of test substance administration, in words) was “improved blood feces score”, the “Body weight recovery compared with the DSS administration only” value (100 mg/kg/day oral, in words) was “body weight recovery was even further significant” and the Body weight (DSS + 1 mg/kg/day oral, day 0 (DSS last day), mean ± SD) was 20.3 ± 0.8 g. The “Fecal scoring average value” (DSS + 1 mg/kg/day oral, day 0 (DSS last day), score 0-3, mean ± SD) was 1.2 ± 0.4, the “Fecal scoring average value” (DSS + 1 mg/kg/day oral, day 3, score 0-3, mean ± SD) was 1.7 ± 0.8 and the Body weight (DSS + 1 mg/kg/day oral, day 3 of administration, mean ± SD) was 14.7 ± 1.3 g. For the same molecule, the Body weight (DSS + 1 mg/kg/day oral, day 5, mean ± SD) was 15.1 ± 1.5 g, the “Fecal scoring average value” (DSS + 1 mg/kg/day oral, day 5, score 0-3, mean ± SD) was 1.7 ± 0.6 and the Body weight (DSS + 1 mg/kg/day oral, day 8, mean ± SD) was 18.0 ± 2.4 g. For the same molecule, the “Fecal scoring average value” (DSS + 1 mg/kg/day oral, day 8, score 0-3, mean ± SD) was 0.0 ± 0.0, the Body weight [1] was 19.4 ± 2.2 g and the Colon wet weight [1] was 269.0 ± 8.4. For the same molecule, the “Fecal scoring average value” (DSS + 1 mg/kg/day oral, day 10, score 0-3, mean ± SD) was 0.0 ± 0.0, the Colon length (DSS + 1 mg/kg/day oral, day 10 of administration, mean ± SD, 1 mg/kg/day) was 6.72 cm and 6.72 ± 0.28 cm and the Body weight (DSS + 1 mg/kg/day oral, day −5 (DSS start, before test substance), C57BL/6J mice, mean ± SD) was 20.3 ± 0.9 g. The “Fecal scoring average value” (DSS + 1 mg/kg/day oral, day −5 (before test substance), score 0-3 per Table 2, mean ± SD) was 0.0 ± 0.0, the Body weight (DSS + 10 mg/kg/day oral, day 0 (DSS last day), mean ± SD) was 18.9 ± 1.1 g and the “Fecal scoring average value” (DSS + 10 mg/kg/day oral, day 0 (DSS last day), score 0-3, mean ± SD) was 1.2 ± 0.4. The Body weight (DSS + 10 mg/kg/day oral, day 3, mean ± SD) was 14.9 ± 1.4 g, the “Fecal scoring average value” (DSS + 10 mg/kg/day oral, day 3, score 0-3, mean ± SD) was 1.3 ± 0.5 and the Body weight (DSS + 10 mg/kg/day oral, day 5, mean ± SD) was 15.9 ± 1.9 g. The “Fecal scoring average value” (DSS + 10 mg/kg/day oral, day 5, score 0-3, mean ± SD) was 1.7 ± 0.5, the Body weight (DSS + 10 mg/kg/day oral, day 8, mean ± SD) was 18.5 ± 2.1 g and the “Fecal scoring average value” (DSS + 10 mg/kg/day oral, day 8, score 0-3, mean ± SD) was 0.0 ± 0.0. For the same molecule, the Body weight [2] was 19.8 ± 1.7 g, the Colon length [2] was 6.32 ± 0.16 cm and the Colon wet weight [2] was 255.0 ± 12.4. The “Fecal scoring average value” (DSS + 10 mg/kg/day oral, day 10, score 0-3, mean ± SD) was 0.0 ± 0.0, the Body weight (DSS + 10 mg/kg/day oral, day −5 (DSS start, before test substance), mean ± SD) was 20.1 ± 0.9 g and the “Fecal scoring average value” (DSS + 10 mg/kg/day oral, day −5 (before test substance), score 0-3, mean ± SD) was 0.0 ± 0.0. For the same molecule, the Body weight (DSS + 100 mg/kg/day oral, day 0 (DSS last day), mean ± SD) was 19.0 ± 1.0 g, the “Fecal scoring average value” (DSS + 100 mg/kg/day oral, day 0 (DSS last day), score 0-3, mean ± SD) was 1.0 ± 0.0 and the Body weight (DSS + 100 mg/kg/day oral, day 3, mean ± SD) was 15.2 ± 1.8 g. The “Fecal scoring average value” (DSS + 100 mg/kg/day oral, day 3, score 0-3, mean ± SD) was 1.7 ± 0.8, the Body weight (DSS + 100 mg/kg/day oral, day 5, mean ± SD) was 16.7 ± 2.2 g and the “Fecal scoring average value” (DSS + 100 mg/kg/day oral, day 5, score 0-3, mean ± SD) was 1.0 ± 0.0. The Body weight (DSS + 100 mg/kg/day oral, day 8, mean ± SD) was 19.8 ± 0.9 g, the “Fecal scoring average value” (DSS + 100 mg/kg/day oral, day 8, score 0-3, mean ± SD) was 0.0 ± 0.0 and the Colon wet weight (DSS + 100 mg/kg/day oral, day 10) was 238.6. The Body weight [3] was 21.0 ± 0.7 g, the Colon wet weight [3] was 238.6 ± 11.3 and the Colon length (DSS + 100 mg/kg/day oral, day 10, mean ± SD, 100 mg/kg/day) was 6.80 cm and 6.80 ± 0.12 cm. The “Fecal scoring average value” (DSS + 100 mg/kg/day oral, day 10, score 0-3, mean ± SD) was 0.0 ± 0.0, the Body weight (DSS + 100 mg/kg/day oral, day −5 (DSS start, before test substance), mean ± SD) was 20.1 ± 0.9 g and the “Fecal scoring average value” (DSS + 100 mg/kg/day oral, day −5 (before test substance), score 0-3, mean ± SD) was 0.0 ± 0.0. For the same molecule, the “Colon length compared with DSS group” value (Group Nos. 3 to 5 (1, 10, 100 mg/kg/day) and Group No. 6 (50 mg/kg/day), in words) was “longer length of the colon than DSS group” and the “Colon wet weight compared with DSS group” value (all treated groups of Table 5, in words) was “suppressed weight increases compared with DSS group”.

— patent publication US20210052537A1, “COLITIS AMELIORATING AGENT” (ASTA PHARMACEUTICALS, CO., LTD., priority 2018, published 2021)
